Test systems include ACHN renal; SF-268 CNS; LOX IMVI melanoma; SK-MEL-28 melanoma; MCF7 breast; NCI-H23 lung; OVCAR-8 ovarian; KM12 colon; SF-295 CNS; SNB-75 CNS; SK-MEL-2 melanoma; UACC-62 melanoma; UO-31 renal; UACC-257 melanoma; BT-549 breast; EKVX NSCLC; M14 melanoma; MOLT-4 leukemia; SK-OV-3 ovarian.
Common to all, as to assay: NCI-60 cell line screen, 48 h

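Cells were grown in 96-well plates and exposed to each compound for 48 hours at five concentrations; endpoints were interpolated linearly between bracketing concentrations, or set to the highest concentration if not reached. TGI denotes the concentration required for complete inhibition of growth.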

As for `O=c1oc2ccccc2c(-c2ccc(O)cc2)c1Oc1ccc(Cl)cc1`, the TGI with ACHN renal was 97.2 µM; in the test on SF-268 CNS, 75.9 µM; in the test with LOX IMVI melanoma it was 62 µM; in the test with SK-MEL-28 melanoma, > 100 µM; in the test with MCF7 breast, 72.3 µM; in the test on NCI-H23 lung, 68.6 µM. The TGI in the test with OVCAR-8 ovarian is 69.7 µM; in the test on KM12 colon it was > 100 µM; in the test on SF-295 CNS it was 60.6 µM; in the test with SNB-75 CNS, 85.7 µM; in the test with SK-MEL-2 melanoma, 54.2 µM; in the test on UACC-62 melanoma it was 63.3 µM. Moreover, the TGI in the test with UO-31 renal stood at 51.9 µM; in the test on UACC-257 melanoma, 83.8 µM; in the test on BT-549 breast, 84.3 µM; in the test with EKVX NSCLC, 68.7 µM; in the test with M14 melanoma it was 39 µM.
As for `CCOC(=O)CCC(NC(=O)N1CCN(c2c(C)nc(C)[nH]c2=O)CC1)C(=O)OCC` (configuration not stated), the TGI in the test on ACHN renal, in the test on SF-268 CNS, with LOX IMVI melanoma, with SK-MEL-28 melanoma, in the test on MCF7 breast and in the test on NCI-H23 lung was > 100 µM throughout. The TGI in the test on OVCAR-8 ovarian, in the test with KM12 colon, in the test with SF-295 CNS, in the test with MOLT-4 leukemia, with SK-OV-3 ovarian and with UACC-62 melanoma was > 100 µM in each case. The TGI with UO-31 renal, with UACC-257 melanoma, in the test with BT-549 breast, in the test on EKVX NSCLC and in the test with M14 melanoma was > 100 µM each time.
As for `Nc1cc(OCc2ccccc2)c(OCc2ccccc2)cc1C=O`, the TGI is 93.5 µM in the test on ACHN renal; > 100 µM in the test with SF-268 CNS; 77.2 µM in the test with LOX IMVI melanoma; > 100 µM with SK-MEL-28 melanoma; > 100 µM in the test with MCF7 breast; > 100 µM in the test with OVCAR-8 ovarian. Also, the TGI in the test with KM12 colon was 92.2 µM; in the test on SF-295 CNS it was 70 µM; with SNB-75 CNS it was > 100 µM; with MOLT-4 leukemia, > 100 µM; in the test with SK-OV-3 ovarian, > 100 µM; in the test with SK-MEL-2 melanoma, > 100 µM. For the same molecule, the TGI with UACC-257 melanoma is > 100 µM; in the test with BT-549 breast, 37.3 µM; with EKVX NSCLC, > 100 µM.
On to `Cc1ccc2c(=O)c(-c3nnsn3)c[nH]c2n1`, for which the TGI in the test with ACHN renal, in the test on SF-268 CNS, in the test with LOX IMVI melanoma, in the test with SK-MEL-28 melanoma, with MCF7 breast and with NCI-H23 lung was > 100 µM throughout. Also, the TGI in the test with OVCAR-8 ovarian, with KM12 colon, with SF-295 CNS, with MOLT-4 leukemia, with SK-MEL-2 melanoma and with UACC-62 melanoma was > 100 µM in each case. Besides, the TGI in the test with UO-31 renal, in the test on UACC-257 melanoma, in the test on BT-549 breast, in the test with EKVX NSCLC and in the test with M14 melanoma was > 100 µM throughout.
In the case of `COc1cc(/C=C2/C[C@H]3[C@@H]4CCC5=CC(=O)CC[C@]5(C)[C@H]4CC[C@]3(C)NC2=O)cc(OC)c1OC`, the TGI in the test with ACHN renal was > 100 µM; with SF-268 CNS, > 100 µM; in the test with SK-MEL-28 melanoma, > 100 µM; in the test on MCF7 breast it was 88.9 µM; with NCI-H23 lung it was 57.3 µM; in the test with OVCAR-8 ovarian, 70.7 µM. Moreover, the TGI in the test on KM12 colon is > 100 µM; in the test with SF-295 CNS it was 77.7 µM; in the test with SNB-75 CNS, > 100 µM; in the test on MOLT-4 leukemia, > 100 µM; with SK-OV-3 ovarian it was > 100 µM; in the test on SK-MEL-2 melanoma, > 100 µM. The TGI is > 100 µM in the test with UACC-62 melanoma; 26.8 µM with UO-31 renal; > 100 µM in the test with UACC-257 melanoma; 53.7 µM in the test with BT-549 breast; > 100 µM in the test with EKVX NSCLC; > 100 µM in the test on M14 melanoma.
As to `CCC(C)[C@H]1C(=O)N=C(N)N1C(=O)OCc1ccccc1` (some centres not stated), the TGI in the test on ACHN renal, in the test on SF-268 CNS, in the test on LOX IMVI melanoma, in the test with SK-MEL-28 melanoma, with MCF7 breast and with NCI-H23 lung was > 100 µM throughout. Also, the TGI in the test on OVCAR-8 ovarian, with KM12 colon, in the test with SF-295 CNS, in the test on SNB-75 CNS, in the test with MOLT-4 leukemia and with SK-MEL-2 melanoma was > 100 µM each time. The TGI in the test on UACC-62 melanoma, in the test with UO-31 renal, with UACC-257 melanoma, with BT-549 breast and in the test on EKVX NSCLC was > 100 µM throughout.
As for `CCOC(=O)N/N=C/C1=NN(C(=O)OCC)S(=O)C1C` (configuration not stated), the TGI in the test with ACHN renal, with SF-268 CNS, in the test with SK-MEL-28 melanoma, in the test with MCF7 breast, in the test on NCI-H23 lung and in the test on OVCAR-8 ovarian was > 100 µM throughout. In addition, the TGI with KM12 colon, in the test with SF-295 CNS, in the test with SNB-75 CNS, in the test on MOLT-4 leukemia, with SK-OV-3 ovarian and with SK-MEL-2 melanoma was > 100 µM throughout. The TGI with UACC-62 melanoma, with UO-31 renal, in the test with UACC-257 melanoma, with BT-549 breast, in the test with EKVX NSCLC and in the test on M14 melanoma was > 100 µM in each case.
Take `NS(=O)(=O)c1cc(S(N)(=O)=O)c(NC(=O)Nc2ccc(Cl)c(Cl)c2)c(Cl)c1Cl`: the TGI in the test on ACHN renal, in the test with SF-268 CNS, in the test on LOX IMVI melanoma, in the test on SK-MEL-28 melanoma, with MCF7 breast and with NCI-H23 lung was > 100 µM in each case. Moreover, the TGI in the test with OVCAR-8 ovarian, in the test with KM12 colon, with SF-295 CNS, in the test on MOLT-4 leukemia, with SK-OV-3 ovarian and with SK-MEL-2 melanoma was > 100 µM in each case. Also, the TGI in the test on UACC-62 melanoma, in the test on UO-31 renal, in the test with UACC-257 melanoma, in the test with BT-549 breast, in the test with EKVX NSCLC and in the test on M14 melanoma was > 100 µM each time.
